# In patent US10556860B2, “hTERT modulators and methods of use” (Arizona Board of Regents on Behalf of the University of …, priority 2015, dated 2020):
# Columns and labels:
# hTERT protein = test: Western blot of hTERT protein in MCF7 cells; assay type: cell-based, human
# Description: Western blot analysis. GTC365- or DMSO-treated MCF7 cells were lysed by RIPA buffer and the supernatant of lysate was obtained by centrifugation at 14,000 rpm for 15 min. The concentration of the whole cellular protein was determined by Bradford assay. The same amount of proteins (120 μg) was separated on 8% SDS-PAGE and transferred to PVDF membrane in 20% MeOH/1× Tris-glycine. The membrane was incubated in a blocking buffer containing 5% BSA/5% non-fat milk with TBS-T (0.1% Tween 20) for 90 min at room temperature prior to overnight incubation with hTERT antibody against rabbit (1:200, Santa Cruz #H231, pAb) in 5% BSA/TBS-T buffer at 4° C. […]
# Immunoblot analysis. […] The concentration of the whole cellular protein was determined byBradford assay. […]
# BCL2 is a downstream molecule to hTERT such that BCL2 expression is activated by hTERT to repress apoptosis. To further define the effect of GTC365 on the transcription of hTERT, the relative mRNA levels of MYC and BCL2 were determined by quantitative PCR analysis in MCF7 cells after treatment with GTC365 for 72 h. […] A series of GTC260 analogs were synthesized and their effect on hTERT gene expression in MCF7A and U87 cells determined (FIG. 7). […]
# [1] = test system: G124/125A mutant hTERT G-quadruplex; test: CD melting (Tm), G124/125A mutant; assay type: binding, human; conditions: 2 equiv
# Description: Circular dichroism. Oligomers of WT, G124A, G124/125A, G138/139A and G146A were synthesized and HPSF-purified by MGW Operon, Inc. For CD analysis, oligomers (5 μM) in a buffer containing 10 mM Tris-HCl (pH 7.5) and 140 mM KCl were annealed. For the CD analysis of the complex of oligomers and compounds, oligomers (5 μM) in a buffer containing 10 mM Tris-HCl (pH 7.5) and 5 mM KCl for GTC365 or 1 mM KCl for BRACO-19 were annealed. Oligomers and GTC365 or BRACO-19 were incubated overnight at room temperature. For the full-length of C-rich strand, the oligomer in a buffer of 10 mM Na cacodylate (pH 6.6) was annealed and then incubated with GTC365 overnight. CD analysis was conducted on a Jasco 810 spectropolarimeter (Jasco, Easton, Md.) using a quartz cell with 1 mm of path length, 1 nm of band width, and 1 s of response time for spectra at 20° C. Melting curves for the determination of Tm were obtained by recording ellipticity at 262 nm with increasing temperatures from 25° C. to 95° C. at a rate of 1.6° C./min. Tm of the C-rich strand with GTC365 was obtained from the CD signal at 286 nm within 10-60° C.
# CD and DMS footprinting analyses were conducted to characterize the binding of GTC365 and BRACO-19 to the 5-12 G-quadruplex. […] To verify the effects of compounds on the thermal stability of the WT and the mutant G-quadruplexes, Tms were determined by CD. […]
compound,measurement,setting,value
N=C(N)NCCCS(=O)(=O)Nc1ccc(Nc2c3ccccc3nc3cc([N+](=O)[O-])ccc23)cc1 [GTC365],hTERT protein level,hTERT protein,downregulated
same,Tm more increased compared to the WT,[1],6-7 °C
